The target of this test is T1, human B1 receptor (Homo sapiens, UniProt P46663).
T1 construct: host or cells: CHO-K1
T1 sequence (P46663 1-353): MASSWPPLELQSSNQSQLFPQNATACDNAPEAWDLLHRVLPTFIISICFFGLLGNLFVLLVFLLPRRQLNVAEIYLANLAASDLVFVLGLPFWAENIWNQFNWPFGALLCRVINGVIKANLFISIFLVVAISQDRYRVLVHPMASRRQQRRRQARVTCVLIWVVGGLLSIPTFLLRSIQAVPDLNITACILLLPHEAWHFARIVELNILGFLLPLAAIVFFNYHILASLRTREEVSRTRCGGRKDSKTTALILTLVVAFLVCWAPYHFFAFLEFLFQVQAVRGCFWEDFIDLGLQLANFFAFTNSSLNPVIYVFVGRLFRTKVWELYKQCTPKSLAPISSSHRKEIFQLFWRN
As to the kind of experiment: Calcium flux assay (FLIPR) with recombinant CHO-K1 cells expressing human B1 receptor. The class given is cell-based. The method, then: The potency to inhibit the Bradykinin B1 receptors was determined for the example compounds of this invention in a cell-based fluorescent calcium-mobilisation assay. The assay measures the ability of example compounds to inhibit Bradykinin B1 receptor agonist-induced increase of intracellular free Ca^2+ in the cell line expressing B1 receptor. Specifically, calcium indicator-loaded cells are pre-incubated in the absence or presence of different concentrations of example compounds followed by the stimulation with a selective B1 receptor agonist peptide. The change of the intracellular Ca^2+ concentration is monitored with a fluorescent plate reader FLIPR (Molecular Devices).
Calcium Flux Assays (FLIPR) with Cells Expressing Bradykinin B1 Receptor Calcium Flux Assay (FLIPR) with Recombinant Cells for Bradykinin B1 Receptor Antagonist, Either in the Presence (hB1 IC50) or Absence (hB1 free IC50) of 0.1% Bovine Serum Albumin (BSA) in Assay Buffer
CHO-K1 cell line expressing human B1 receptor was purchased from Euroscreen (Gosselies, Belgium, with reference name hB1-D1). The cells were grown in Nutrient Mixture Ham's F12 (Sigma) containing 10% Foetal bovine serum (Sigma) and 400 μg/mL G418 (Sigma), 5 μg/mL puromycin (Sigma).
For the calcium flux assay, 80% confluent cells were detached from the culture vessels with Versene (Gibco), and seeded into 384-well plates (Cell binding Surface; Corning, N.Y.; #3683) at a density of 15,000 cells per well. Cells were seeded in a volume of 50 μL in medium without antibiotics and incubated overnight in a humidified atmosphere with 5% CO2 at 37° C. […] The calcium indicator loaded cells were incubated at 37° C. for 2 hrs. Extracellular dye was then removed and each well was filled with 45 μL of assay buffer. Cell plates were kept in dark until used. Example compounds were assayed at 8 concentrations in triplicate. Serial 10-fold dilutions in 100% DMSO were made at a 100-times higher concentration than the final concentration, and then diluted 1:10 in assay buffer. 5 μL of each diluted compound was added to the well of cell plates (yielding final concentration with 1% DMSO), and incubated for 30 min at 28° C. before the addition of B1 receptor agonist on the FLIPR instrument.
Agonist plates contained the agonist Lys-(Des-Arg)-Bradykinin (Bachem, Brackley) at 3.5×EC90 in assay buffer with 1% DMSO. The addition of agonist 20 μl per well to the assay plate was carried out on the FLIPR instrument while continuously monitoring Ca^2+-dependent fluorescence at 538 nm. A peptide antagonist Lys-(Des-Arg-Leu)-Bradykinin (Bachem, Brackley) at 20 μM was used to determine the full inhibition as control.
Peak fluorescence was used to determine the response to agonist obtained at each concentration of example compound by the following equation:
% Response=100*(RFU(example compound)−RFU(control)/(RFU(DMSO)−RFU(control)
Control=full inhibition by the peptide antagonist Lys-(Des-Arg-Leu)-Bradykinin at 20 μM
The response values were plotted against the logarithm of the compound concentrations. The compounds were tested in triplicates per plate and mean values were plotted in Excel XLfit to determine IC50 values, percentage of maximal inhibition and the Hill slopes.

[1] abbreviates: presence of 0.1% BSA in assay buffer, read-out: hB1 IC50.
[2] abbreviates: absence of 0.1% BSA in assay buffer, read-out: hB1 free IC50.

Like-named read-outs stand apart in the source and are kept apart here.

Usually IC50 stands for the midpoint of a concentration-inhibition curve. With `COc1ccc(-c2ccc(NC(=O)C3CC3c3ccccc3)cc2-c2nnn[nH]2)cc1OC` (racemic) [Example 1, N[3′,4′-dimethoxy-2-(1H-tetrazol-5-yl)biphenyl-4-yl]-2-phenylcyclopropanecarboxamide], the IC50 under setting [1] is 209 nM.
As for `COc1ccc(-c2ccc(NC(=O)C3CC3c3cnn(C)c3)cc2-c2nnn[nH]2)cc1OC` (racemic) [Example 2, N-[3′,4′-dimethoxy-2-(1H-tetrazol-5-yl)biphenyl-4-yl]-2-(1-methyl-1H-pyrazol-4-yl)cyclopropanecarbox-amide], the IC50 under setting [1] amounted to 2120 nM.
For the molecule `COc1ccc(-c2ccc(NC(=O)C3CC3c3ccccc3F)cc2-c2nnn[nH]2)cc1OC` (racemic) [Example 3, N-[3′,4′-dimethoxy-2-(1H-tetrazol-5-yl)biphenyl-4-yl]-2-(2-fluorophenyl)cyclopro-panecarboxamide], the IC50 under setting [1] worked out at 101 nM.
Take `COc1ccc(-c2ccc(NC(=O)C3CC3c3ccccc3C)cc2-c2nnn[nH]2)cc1OC` (racemic) [Example 4, N-[3′,4′-dimethoxy-2-(1H-tetrazol-5-yl)biphenyl-4-yl]-2-(2-methylphenyl)cyclopro-panecarboxamide]: the IC50 by setting is: under setting [2], 12 nM; under setting [1], 27 nM.
In the case of `CCc1ccccc1C1CC1C(=O)Nc1ccc(-c2ccc(OC)c(OC)c2)c(-c2nnn[nH]2)c1` (racemic) [Example 5, N-[3′,4′-dimethoxy-2-(1H-tetrazol-5-yl)biphenyl-4-yl]-2-(2-ethylphenyl)cyclopro-panecarboxamide], the IC50 under setting [1] worked out at 16 nM.
Regarding `COc1ccc(-c2ccc(NC(=O)C3CC3c3ccccc3OC(F)(F)F)cc2-c2nnn[nH]2)cc1OC` (racemic) [Example 6, N-[3′,4′-dimethoxy-2-(1H-tetrazol-5-yl)biphenyl-4-yl]-2-[2-(trifluoromethoxy)phen-yl]cyclopropane-carboxamide], the IC50 under setting [2] was 6 nM and the IC50 under setting [1] came out at 20 nM.
Take `COc1ccc(-c2ccc(NC(=O)C3CC3c3cccc(C)c3)cc2-c2nnn[nH]2)cc1OC` (racemic) [Example 7, N-[3′,4′-dimethoxy-2-(1H-tetrazol-5-yl)biphenyl-4-yl]-2-(3-methylphenyl)cyclopro-panecarboxamide]: the IC50 under setting [2] worked out at 6 nM and the IC50 under setting [1] is 19 nM.
For the molecule `COc1ccc(-c2ccc(NC(=O)C3CC3c3ccc(Cl)cc3)cc2-c2nnn[nH]2)cc1OC` (racemic) [Example 9, 2-(4-chlorophenyl)-N-[3′,4′-dimethoxy-2-(1H-tetrazol-5-yl)biphenyl-4-yl]cyclo-propanecarboxamide], the IC50 under setting [1] was 19 nM.
Still for that read-out and setting: for `COc1ccc(-c2ccc(NC(=O)C3CC3c3ccc(C)cc3)cc2-c2nnn[nH]2)cc1OC` (racemic) [Example 10, N-[3′,4′-dimethoxy-2-(1H-tetrazol-5-yl)biphenyl-4-yl]-2-(4-methylphenyl)cyclopro-panecarboxamide] the value was 33 nM; for `COc1ccc(-c2ccc(NC(=O)C3CC3c3ccc(F)cc3)cc2-c2nnn[nH]2)cc1OC` (racemic) [Example 11, N-[3′,4′-dimethoxy-2-(1H-tetrazol-5-yl)biphenyl-4-yl]-2-(4-fluorophenyl)cyclopro-panecarboxamide], 95 nM; for `CCc1ccc(C2CC2C(=O)Nc2ccc(-c3ccc(OC)c(OC)c3)c(-c3nnn[nH]3)c2)cc1` (racemic) [Example 12, N-[3′,4′-dimethoxy-2-(1H-tetrazol-5-yl)biphenyl-4-yl]-2-(4-ethylphenyl)cyclopro-panecarboxamide], 341 nM.
Turning to `COc1ccc(C2CC2C(=O)Nc2ccc(-c3ccc(OC)c(OC)c3)c(-c3nnn[nH]3)c2)cc1` (racemic) [Example 13, N-[3′,4′-dimethoxy-2-(1H-tetrazol-5-yl)biphenyl-4-yl]-2-(4-methoxyphenyl)cyclo-propanecarboxamide], the IC50 under setting [1] came out at 1050 nM.
Turning to `CCOc1ccc(-c2ccc(NC(=O)C3CC3c3ccc(F)cc3)cc2-c2nnn[nH]2)cn1` (racemic) [Example 16, N-[4-(6-ethoxypyridin-3-yl)-3-(1H-tetrazol-5-yl)phenyl]-2-(4-fluorophenyl)cyclopro-panecarboxamide], under setting [1], the 50% inhibitory concentration (IC50) worked out at 15 nM.
Take `CCOc1ccc(-c2ccc(NC(=O)C3CC3C3CCCCC3)cc2-c2nnn[nH]2)cn1` (racemic) [Example 20, 2-Cyclohexyl-N-[4-(6-ethoxypyridin-3-yl)-3-(1H-tetrazol-5-yl)phenyl]cyclopro-panecarboxamide]: the IC50 under setting [1] was determined as 389 nM.
Regarding `CCOc1cncc(-c2ccc(NC(=O)C3CC3c3ccc(Cl)cc3)cc2-c2nnn[nH]2)c1` (racemic) [Example 22, 2-(4-Chlorophenyl)-N-[4-(5-ethoxypyridin-3-yl)-3-(1H-tetrazol-5-yl)phenyl]cyclopro-panecarboxamide], the IC50 under setting [1] stood at 603 nM.
Same read-out and setting: for `CCOc1cncc(-c2ccc(NC(=O)C3CC3c3cccc(C)c3)cc2-c2nnn[nH]2)c1` (racemic) [Example 23, N-[4-(5-Ethoxypyridin-3-yl)-3-(1H-tetrazol-5-yl)phenyl]-2-(3-methylphenyl)cyclopro-panecarboxamide] the value was 303 nM.
`COc1cncc(-c2ccc(NC(=O)C3CC3C3CCCCC3)cc2-c2nnn[nH]2)c1` (racemic) [Example 24, 2-Cyclohexyl-N-[4-(5-methoxypyridin-3-yl)-3-(1H-tetrazol-5-yl)phenyl]cyclopro-panecarboxamide]: the IC50 under setting [1] came to 310 nM.
On to `COc1cncc(-c2ccc(NC(=O)C3CC3c3cccc(C)c3)cc2-c2nnn[nH]2)c1` (racemic) [Example 25, N-[4-(5-Methoxypyridin-3-yl)-3-(1H-tetrazol-5-yl)phenyl]-2-(3-methylphenyl)cyclopro-panecarboxamide], for which, under setting [1], the IC50 amounted to 520 nM.
For the molecule `COc1cncc(-c2ccc(NC(=O)C3CC3c3ccc(Cl)cc3)cc2-c2nnn[nH]2)c1` (racemic) [Example 26, 2-(4-Chlorophenyl)-N-[4-(5-methoxypyridin-3-yl)-3-(1H-tetrazol-5-yl)phenyl]cyclopro-panecarboxamide], under setting [1], the IC50 was 372 nM.
Consider `CCOc1ncc(-c2ccc(NC(=O)C3CC3c3ccc(Cl)cc3)cc2-c2nnn[nH]2)cn1` (racemic) [Example 27, 2-(4-Chlorophenyl)-N-[4-(2-ethoxypyrimidin-5-yl)-3-(1H-tetrazol-5-yl)phenyl]cyclopropane-carboxamide], for which the IC50 under setting [2] turned out to be 13 nM.
For the molecule `O=C(Nc1ccc(-c2ccc(C(F)(F)F)nc2)c(-c2nnn[nH]2)c1)C1CC1c1ccccc1` (racemic) [Example 28, 2-Phenyl-N-{3-(1H-tetrazol-5-yl)-4-[6-(trifluoromethyl)pyridin-3-yl]phenyl}cyclopro-panecarboxamide], the IC50 under setting [2] is 509 nM.
`CC1(C(=O)Nc2ccc(-c3ccc(C(F)(F)F)nc3)c(-c3nnn[nH]3)c2)CC1c1ccccc1` (racemic) [Example 29, 1-Methyl-2-phenyl-N-{3-(1H-tetrazol-5-yl)-4-[6-(trifluoromethyl)pyridin-3-yl]phenyl}cyclopro-panecarboxamide]: the IC50 under setting [2] stood at 526 nM.
As to `O=C(Nc1ccc(-c2ccc(C(F)(F)F)nc2)c(-c2nnn[nH]2)c1)C1CC1C1CCCCC1` (racemic) [Example 30, 2-Cyclohexyl-N-{3-(1H-tetrazol-5-yl)-4-[6-(trifluoromethyl)pyridin-3-yl]phenyl}cyclopro-panecarboxamide], the IC50 was determined as 514 nM under setting [2] and 3300 nM under setting [1].
Consider `CCOc1ccc(-c2ccc(NC(=O)C3CC3C3CCCCC3)cc2-c2nnn[nH]2)cc1OC` (racemic) [Example 31, 2-cyclohexyl-N-[4′-ethoxy-3′-methoxy-2-(1H-tetrazol-5-yl)biphenyl-4-yl]cyclopropane-carboxamide], for which, under setting [1], the IC50 is 27 nM.

These data come from patent US20190194148A1, “TETRAZOLE-CONTAINING 1,2-CYCLOPROPANE-CARBOXAMIDES” (Bayer Pharma Aktiengesellschaft, priority 2017, published 2019).
